Values after ≈ are worked out from the molar mass of the structure shown.
Key:
Clostridioides difficile = experiment: Antibacterial activity against Clostridium difficile by CLSI M11-A6 agar dilution method; format: functional
Clostridium hathewayi = experiment: Antibacterial activity against Clostridium hathewayi by CLSI M11-A6 agar dilution method; format: functional; settings: Hungatella hathewayi
Clostridium perfringens = experiment: Antibacterial activity against Clostridium perfringens by CLSI M11-A6 agar dilution method; format: functional
Clostridium subterminale = experiment: Antibacterial activity against Clostridium subterminale by CLSI M11-A6 agar dilution method; format: functional
Clostridium bartlettii = experiment: Antibacterial activity against Clostridium bartlettii by CLSI M11-A6 agar dilution method; format: functional; settings: Intestinibacter bartlettii
Clostridium butyricum = experiment: Antibacterial activity against Clostridium butyricum by CLSI M11-A6 agar dilution method; format: functional
[1] = system: Clostridium celerecrescens; experiment: Antibacterial activity against Clostridium celerecrescens by CLSI M11-A6 agar dilution method; format: functional; settings: Lacrimispora celerecrescens
Clostridium disporicum = experiment: Antibacterial activity against Clostridium disporicum by CLSI M11-A6 agar dilution method; format: functional
Flavonifractor plautii = experiment: Antibacterial activity against Clostridium orbiscindens by CLSI M11-A6 agar dilution method; format: functional
[2] = system: Clostridium paraputrificum; experiment: Antibacterial activity against Clostridium paraputrificum by CLSI M11-A6 agar dilution method; format: functional
[3] = system: Paeniclostridium sordellii; experiment: Antibacterial activity against Clostridium sordellii by CLSI M11-A6 agar dilution method; format: functional; settings: Paraclostridium sordellii
Clostridium spiroforme = experiment: Antibacterial activity against Clostridium spiroforme by CLSI M11-A6 agar dilution method; format: functional; settings: Thomasclavelia spiroformis
Clostridium sporogenes = experiment: Antibacterial activity against Clostridium sporogenes by CLSI M11-A6 agar dilution method; format: functional
[4] = system: Clostridium sporosphaeroides; experiment: Antibacterial activity against Clostridium sporosphaeroides by CLSI M11-A6 agar dilution method; format: functional; settings: Faecalispora sporosphaeroides
Clostridium sp. = experiment: Antibacterial activity against Clostridium sp. by CLSI M11-A6 agar dilution method; format: functional
[5] = system: Bifidobacterium adolescentis; experiment: Antibacterial activity against Bifidobacterium adolescentis by CLSI M11-A6 agar dilution method; format: functional
[6] = Antibacterial activity against Bifidobacterium infantis by CLSI M11-A6 agar dilution method; format: functional, Bifidobacterium longum subsp. infantis; settings: Bifidobacterium longum
Bifidobacterium longum = experiment: Antibacterial activity against Bifidobacterium longum by CLSI M11-A6 agar dilution method; format: functional
[7] = system: Bifidobacterium pseudolongum; experiment: Antibacterial activity against Bifidobacterium pseudolongum by CLSI M11-A6 agar dilution method; format: functional
[8] = system: Catenibacterium mitsuokai; experiment: Antibacterial activity against Catenibacterium mitsuokai by CLSI M11-A6 agar dilution method; format: functional
Collinsella aerofaciens = experiment: Antibacterial activity against Colinsella aerofaciens by CLSI M11-A6 agar dilution method; format: functional
[9] = system: Coprobacillus cateniformis; experiment: Antibacterial activity against Coprobacillus cateniformis by CLSI M11-A6 agar dilution method; format: functional
Coriobacterium = experiment: Antibacterial activity against […] by CLSI M11-A6 agar dilution method; format: functional
Ruminococcus obeum = experiment: Antibacterial activity against Ruminococcus obeum by CLSI M11-A6 agar dilution method; format: functional; settings: Blautia obeum
Ruminococcus albus = experiment: Antibacterial activity against Ruminococcus albus by CLSI M11-A6 agar dilution method; format: functional; settings: Hominimerdicola alba
Blautia luti = experiment: Antibacterial activity against Ruminococcus luti by CLSI M11-A6 agar dilution method; format: functional
Ruminococcus lactaris = experiment: Antibacterial activity against Ruminococcus lactaris by CLSI M11-A6 agar dilution method; format: functional
Ruminococcus torques = experiment: Antibacterial activity against Ruminococcus torques by CLSI M11-A6 agar dilution method; format: functional; settings: Mediterraneibacter torques
Anaerococcus tetradius = experiment: Antibacterial activity against Anaerococcus tetradius by CLSI M11-A6 agar dilution method; format: functional
Finegoldia magna = experiment: Antibacterial activity against Finegoldia magna by CLSI M11-A6 agar dilution method; format: functional
[10] = system: Peptoniphilus asaccharolyticus; experiment: Antibacterial activity against Peptoniphilus asaccharolyticus by CLSI M11-A6 agar dilution method; format: functional
Streptococcus anginosus = experiment: Antibacterial activity against Streptococcus anginosus by CLSI M11-A6 agar dilution method; format: functional
[11] = system: Streptococcus intermedius; experiment: Antibacterial activity against Streptococcus intermedius by CLSI M11-A6 agar dilution method; format: functional
Parabacteroides merdae = experiment: Antibacterial activity against Parabacteroides merdae by CLSI M11-A6 agar dilution method; format: functional
[12] = system: Bacteroides thetaiotaomicron; experiment: Antibacterial activity against Bacteroides thetaiotaomicron by CLSI M11-A6 agar dilution method; format: functional
Odoribacter splanchnicus = experiment: Antibacterial activity against Bacteroides splanchnicus by CLSI M11-A6 agar dilution method; format: functional
Fusobacterium varium = experiment: Antibacterial activity against Fusobacterium varium by CLSI M11-A6 agar dilution method; format: functional
Prevotella bivia = experiment: Antibacterial activity against Prevotella bivia by CLSI M11-A6 agar dilution method; format: functional
Prevotella buccae = experiment: Antibacterial activity against Prevotella buccae by CLSI M11-A6 agar dilution method; format: functional; settings: Segatella buccae
Prevotella corporis = experiment: Antibacterial activity against Prevotella corporis by CLSI M11-A6 agar dilution method; format: functional
Prevotella intermedia = experiment: Antibacterial activity against Prevotella P intermedia by CLSI M11-A6 agar dilution method; format: functional
Prevotella nigrescens = experiment: Antibacterial activity against Prevotella nigrescens by CLSI M11-A6 agar dilution method; format: functional
Prevotella oris = experiment: Antibacterial activity against Prevotella oris by CLSI M11-A6 agar dilution method; format: functional; settings: Segatella oris

## CC(=O)NC[C@H]1CN(c2ccc(N3CCOCC3)c(F)c2)C(=O)O1 [LINEZOLID]
Clostridioides difficile
  MIC50: 2 µg/mL (≈ 5.93 µM)
  MIC90: 16 µg/mL (≈ 47.4 µM)
Clostridium hathewayi
  MIC50: 2 µg/mL (≈ 5.93 µM)
  MIC90: 4 µg/mL (≈ 11.9 µM)
Clostridium perfringens
  MIC50: 2 µg/mL (≈ 5.93 µM)
  MIC90: 2 µg/mL (≈ 5.93 µM)
Clostridium subterminale
  MIC50: 4 µg/mL (≈ 11.9 µM)
  MIC90: 4 µg/mL (≈ 11.9 µM)
Clostridium bartlettii
  MIC50: 2 µg/mL (≈ 5.93 µM)
  MIC90: 4 µg/mL (≈ 11.9 µM)
Clostridium butyricum
  MIC50: 2 µg/mL (≈ 5.93 µM)
  MIC90: 4 µg/mL (≈ 11.9 µM)
[1]
  MIC50: 2 µg/mL (≈ 5.93 µM)
  MIC90: 4 µg/mL (≈ 11.9 µM)
Clostridium disporicum
  MIC50: 2 µg/mL (≈ 5.93 µM)
  MIC90: 4 µg/mL (≈ 11.9 µM)
Flavonifractor plautii
  MIC50: 2 µg/mL (≈ 5.93 µM)
  MIC90: 4 µg/mL (≈ 11.9 µM)
[2]
  MIC50: 2 µg/mL (≈ 5.93 µM)
  MIC90: 4 µg/mL (≈ 11.9 µM)
[3]
  MIC50: 2 µg/mL (≈ 5.93 µM)
  MIC90: 4 µg/mL (≈ 11.9 µM)
Clostridium spiroforme
  MIC50: 2 µg/mL (≈ 5.93 µM)
  MIC90: 4 µg/mL (≈ 11.9 µM)
Clostridium sporogenes
  MIC50: 2 µg/mL (≈ 5.93 µM)
  MIC90: 4 µg/mL (≈ 11.9 µM)
[4]
  MIC50: 2 µg/mL (≈ 5.93 µM)
  MIC90: 4 µg/mL (≈ 11.9 µM)
Clostridium sp.
  MIC50: 2 µg/mL (≈ 5.93 µM)
  MIC90: 4 µg/mL (≈ 11.9 µM)
[5]
  MIC50: 1 µg/mL (≈ 2.96 µM)
  MIC90: 8 µg/mL (≈ 23.7 µM)
[6]
  MIC90: 8 µg/mL (≈ 23.7 µM)
Bifidobacterium longum
  MIC50: 1 µg/mL (≈ 2.96 µM)
  MIC90: 8 µg/mL (≈ 23.7 µM)
[7]
  MIC50: 1 µg/mL (≈ 2.96 µM)
  MIC90: 8 µg/mL (≈ 23.7 µM)
[8]
  MIC50: 1 µg/mL (≈ 2.96 µM)
  MIC90: 8 µg/mL (≈ 23.7 µM)
Collinsella aerofaciens
  MIC50: 1 µg/mL (≈ 2.96 µM)
  MIC90: 8 µg/mL (≈ 23.7 µM)
[9]
  MIC50: 1 µg/mL (≈ 2.96 µM)
  MIC90: 8 µg/mL (≈ 23.7 µM)
Coriobacterium
  MIC50: 1 µg/mL (≈ 2.96 µM)
  MIC90: 8 µg/mL (≈ 23.7 µM)
Ruminococcus obeum
  MIC: 1 µg/mL (≈ 2.96 µM)
  MIC50: 1 µg/mL (≈ 2.96 µM)
  MIC90: 2 µg/mL (≈ 5.93 µM)
Ruminococcus albus
  MIC50: 2 µg/mL (≈ 5.93 µM)
  MIC90: 4 µg/mL (≈ 11.9 µM)
Blautia luti
  MIC50: 2 µg/mL (≈ 5.93 µM)
  MIC90: 4 µg/mL (≈ 11.9 µM)
Ruminococcus lactaris
  MIC50: 2 µg/mL (≈ 5.93 µM)
  MIC90: 4 µg/mL (≈ 11.9 µM)
Ruminococcus torques
  MIC50: 2 µg/mL (≈ 5.93 µM)
  MIC90: 4 µg/mL (≈ 11.9 µM)
Anaerococcus tetradius
  MIC50: 1 µg/mL (≈ 2.96 µM)
  MIC90: 2 µg/mL (≈ 5.93 µM)
Finegoldia magna
  MIC50: 1 µg/mL (≈ 2.96 µM)
  MIC90: 2 µg/mL (≈ 5.93 µM)
[10]
  MIC50: 1 µg/mL (≈ 2.96 µM)
  MIC90: 2 µg/mL (≈ 5.93 µM)
Streptococcus anginosus
  MIC50: 2 µg/mL (≈ 5.93 µM)
  MIC90: 4 µg/mL (≈ 11.9 µM)
[11]
  MIC50: 2 µg/mL (≈ 5.93 µM)
  MIC90: 4 µg/mL (≈ 11.9 µM)
Parabacteroides merdae
  MIC50: 4 µg/mL (≈ 11.9 µM)
  MIC90: 4 µg/mL (≈ 11.9 µM)
[12]
  MIC50: 4 µg/mL (≈ 11.9 µM)
  MIC90: 8 µg/mL (≈ 23.7 µM)
Odoribacter splanchnicus
  MIC: 2 µg/mL (≈ 5.93 µM)
  MIC50: 2 µg/mL (≈ 5.93 µM)
  MIC90: 4 µg/mL (≈ 11.9 µM)
Fusobacterium varium
  MIC50: 1 µg/mL (≈ 2.96 µM)
  MIC90: 1 µg/mL (≈ 2.96 µM)
Prevotella bivia
  MIC50: 2 µg/mL (≈ 5.93 µM)
  MIC90: 2 µg/mL (≈ 5.93 µM)
Prevotella buccae
  MIC50: 2 µg/mL (≈ 5.93 µM)
  MIC90: 2 µg/mL (≈ 5.93 µM)
Prevotella corporis
  MIC50: 2 µg/mL (≈ 5.93 µM)
  MIC90: 2 µg/mL (≈ 5.93 µM)
Prevotella intermedia
  MIC50: 2 µg/mL (≈ 5.93 µM)
  MIC90: 2 µg/mL (≈ 5.93 µM)
Prevotella nigrescens
  MIC50: 2 µg/mL (≈ 5.93 µM)
  MIC90: 2 µg/mL (≈ 5.93 µM)
Prevotella oris
  MIC50: 2 µg/mL (≈ 5.93 µM)
  MIC90: 2 µg/mL (≈ 5.93 µM)
